Values of other authors in patent US20250221938A1, “PHARMACEUTICAL COMPOSITION, METHODS FOR TREATING AND USES THEREOF” (Boehringer Ingelheim International GmbH, priority 2015, published 2025).
Counter-ions that a name gives are not always drawn.

Details: metformin on its own, in the diabetic

CN(C)C(=N)N=C(N)N [metformin, metformin hydrochloride]
average improvement in the HbA1c value: 1.0-1.5%
